Results taken from ChEMBL document CHEMBL1287680, “C-11 diamino cryptolepine derivatives NSC748392, NSC748393, and NSC748394: anticancer profile and G-quadruplex stabilization” (Bioorg Med Chem Lett, 2010).

Tests used:
[1] = test system: Nucleic Acid; conditions: Homo sapiens
Description: Binding affinity to human duplex DNA assessed as change in melting temperature by FRET-melting assay

[2] = test system: OVCAR-4; assay: cells; conditions: Homo sapiens; for GI50: OVCAR-4, read-out: pGI50 (converted); for TGI: OVCAR-4, read-out: pTGI
Description: Anticancer activity against human OVCAR4 cells

[3] = test system: OVCAR-3; assay: cells; conditions: Homo sapiens; for GI50: OVCAR-3, read-out: pGI50 (converted); for CC50: OVCAR-3, read-out: pLC50 (converted); for TGI: OVCAR-3, read-out: pTGI
Description: Anticancer activity against human OVCAR-3 cells

[4] = test system: IGROV-1; assay: cells; conditions: Homo sapiens; for GI50: IGROV-1, read-out: pGI50 (converted); for CC50: IGROV-1, read-out: pLC50 (converted); for TGI: IGROV-1, read-out: pTGI
Description: Anticancer activity against human IGROV1 cells

[5] = test system: UACC-62; assay: cells; conditions: Homo sapiens; for GI50: UACC-62, read-out: pGI50 (converted); for TGI: UACC-62, read-out: pTGI
Description: Anticancer activity against human UACC62 cells

[6] = test system: SK-MEL-5; assay: cells; conditions: Homo sapiens; for GI50: SK-MEL-5, read-out: pGI50 (converted); for CC50: SK-MEL-5, read-out: pLC50 (converted); for TGI: SK-MEL-5, read-out: pTGI
Description: Anticancer activity against human SK-MEL-5 cells

[7] = test system: SK-MEL-28; assay: cells; conditions: Homo sapiens; for GI50: SK-MEL-28, read-out: pGI50 (converted); for CC50: SK-MEL-28, read-out: pLC50 (converted); for TGI: SK-MEL-28, read-out: pTGI
Description: Anticancer activity against human SK-MEL-28 cells

[8] = test system: LOX IMVI; assay: cells; conditions: Homo sapiens; for GI50: read-out: pGI50 (converted); for CC50: read-out: pLC50 (converted); for TGI: read-out: pTGI
Description: Anticancer activity against human LOXIMVI cells

[9] = test system: U-251; assay: cells; conditions: Homo sapiens; for GI50: U-251, read-out: pGI50 (converted); for CC50: U-251, read-out: pLC50 (converted); for TGI: U-251, read-out: pTGI
Description: Anticancer activity against human U251 cells

[10] = test system: SNB-75; assay: cells; conditions: Homo sapiens; for GI50: SNB-75, read-out: pGI50 (converted); for CC50: SNB-75, read-out: pLC50 (converted); for TGI: SNB-75, read-out: pTGI
Description: Anticancer activity against human SNB75 cells

[11] = test system: SW-620; assay: cells; conditions: Homo sapiens; for GI50: SW-620, read-out: pGI50 (converted); for TGI: SW-620, read-out: pTGI
Description: Anticancer activity against human SW620 cells

[12] = test system: HT-29; assay: cells; conditions: Homo sapiens; for GI50: HT-29, read-out: pGI50 (converted); for CC50: HT-29, read-out: pLC50 (converted); for TGI: HT-29, read-out: pTGI
Description: Anticancer activity against human HT-29 cells

[13] = test system: HCT-116; assay: cells; conditions: Homo sapiens; for GI50: HCT-116, read-out: pGI50 (converted); for CC50: HCT-116, read-out: pLC50 (converted); for TGI: HCT-116, read-out: pTGI
Description: Anticancer activity against human HCT116 cells

[14] = test system: HCC 2998; assay: cells; conditions: Homo sapiens; for GI50: HCC 2998, read-out: pGI50 (converted); for CC50: HCC 2998, read-out: pLC50 (converted); for TGI: HCC 2998, read-out: pTGI
Description: Anticancer activity against human HCC2998 cells

[15] = test system: COLO 205; assay: cells; conditions: Homo sapiens; for GI50: COLO 205, read-out: pGI50 (converted); for CC50: COLO 205, read-out: pLC50 (converted); for TGI: COLO 205, read-out: pTGI
Description: Anticancer activity against human COLO205 cells

[16] = test system: NCI-H522; assay: cells; conditions: Homo sapiens; for GI50: NCI-H522, read-out: pGI50 (converted); for TGI: NCI-H522, read-out: pTGI
Description: Anticancer activity against human NCI-H522 cells

[17] = test system: NCI-H460; assay: cells; conditions: Homo sapiens; for GI50: NCI-H460, read-out: pGI50 (converted); for CC50: NCI-H460, read-out: pLC50 (converted); for TGI: NCI-H460, read-out: pTGI
Description: Anticancer activity against human NCI-H460 cells

[18] = test system: HOP-62; assay: cells; conditions: Homo sapiens; for GI50: HOP-62, read-out: pGI50 (converted); for CC50: HOP-62, read-out: pLC50 (converted); for TGI: HOP-62, read-out: pTGI
Description: Anticancer activity against human HOP62 cells

[19] = test system: MOLT-4; assay: cells; conditions: Homo sapiens; for GI50: MOLT-4, read-out: pGI50 (converted); for CC50: MOLT-4, read-out: pLC50 (converted); for TGI: MOLT-4, read-out: pTGI
Description: Anticancer activity against human MOLT4 cells

[20] = test system: K562; assay: cells; conditions: Homo sapiens; for CC50: K562, read-out: pLC50 (converted); for TGI: K562, read-out: pTGI
Description: Anticancer activity against human K562 cells

[21] = test system: HL-60(TB); assay: cells; conditions: Homo sapiens; for GI50: HL-60, read-out: pGI50 (converted); for CC50: HL-60, read-out: pLC50 (converted)
Description: Anticancer activity against human HL-60(TB) cells

[22] = test system: CCRF-CEM; assay: cells; conditions: Homo sapiens; for GI50: read-out: pGI50 (converted); for CC50: read-out: pLC50 (converted); for TGI: read-out: pTGI
Description: Anticancer activity against human CCRF-CEM cells

[23] = test system: BT-549; assay: cells; conditions: Homo sapiens; for GI50: BT-549, read-out: pGI50 (converted); for CC50: BT-549, read-out: pLC50 (converted); for TGI: BT-549, read-out: pTGI
Description: Anticancer activity against human BT549 cells

[24] = test system: MDA-MB-231; assay: cells; conditions: Homo sapiens; for GI50: MDA-MB-231, read-out: pGI50 (converted); for CC50: MDA-MB-231, read-out: pLC50 (converted); for TGI: MDA-MB-231, read-out: pTGI
Description: Anticancer activity against human MDA-MB-231 cells

[25] = test system: MCF7; assay: cells; conditions: Homo sapiens; for GI50: MCF7, read-out: pGI50 (converted); for CC50: MCF7, read-out: pLC50 (converted); for TGI: MCF7, read-out: pTGI
Description: Anticancer activity against human MCF7 cells

[26] = test system: DU-145; assay: cells; conditions: Homo sapiens; for GI50: DU-145, read-out: pGI50 (converted); for CC50: DU-145, read-out: pLC50 (converted); for TGI: DU-145, read-out: pTGI
Description: Anticancer activity against human DU145 cells

[27] = test system: SN12C; assay: cells; conditions: Homo sapiens; for GI50: read-out: pGI50 (converted); for CC50: read-out: pLC50 (converted); for TGI: read-out: pTGI
Description: Anticancer activity against human SN12C cells

[28] = test system: A498; assay: cells; conditions: Homo sapiens; for GI50: A498, read-out: pGI50 (converted); for CC50: A498, read-out: pLC50 (converted); for TGI: A498, read-out: pTGI
Description: Anticancer activity against human A498 cells

[29] = test system: 786-0; assay: cells; conditions: Homo sapiens; for GI50: 786-0, read-out: pGI50 (converted); for CC50: 786-0, read-out: pLC50 (converted); for TGI: 786-0, read-out: pTGI
Description: Anticancer activity against human 786-0 cells

[30] = physchem
Description: Dissociation constant, pKa of the compound by UV-visible spectroscopy

C[n+]1c2ccccc2c(Nc2ccc(N3CCCCC3)cc2)c2[nH]c3ccccc3c21.[Cl-]
ΔTm [1]: 1.2 °C | GI50 [2]: 363 nM | CC50 ([2]; OVCAR-4, read-out: pLC50 (converted)): 3980 nM | TGI [2]: 1350 nM | GI50 [3]: 224 nM | CC50 [3]: 933 nM | TGI [3]: 457 nM | GI50 [4]: 229 nM | CC50 [4]: 3470 nM | TGI [4]: 1170 nM | GI50 [5]: 427 nM | TGI [5]: 1910 nM | GI50 [6]: 229 nM | CC50 [6]: 3470 nM | TGI [6]: 1200 nM | GI50 [7]: 372 nM | CC50 [7]: 3470 nM | TGI [7]: 1150 nM | GI50 [8]: 148 nM | CC50 [8]: 1450 nM | TGI [8]: 398 nM | GI50 [9]: 288 nM | CC50 [9]: 3630 nM | TGI [9]: 1230 nM | GI50 [10]: 692 nM | CC50 [10]: 4470 nM | TGI [10]: 2000 nM | GI50 [11]: 105 nM | TGI [11]: 372 nM | GI50 [12]: 178 nM | CC50 [12]: 2140 nM | TGI [12]: 550 nM | GI50 [13]: 132 nM | CC50 [13]: 100000 nM | TGI [13]: 363 nM | GI50 [14]: 162 nM | CC50 [14]: 813 nM | TGI [14]: 363 nM | GI50 [15]: 141 nM | CC50 [15]: 851 nM | TGI [15]: 347 nM | GI50 [16]: 741 nM | TGI [16]: 2140 nM | GI50 [17]: 145 nM | CC50 [17]: 2290 nM | TGI [17]: 468 nM | GI50 [18]: 741 nM | CC50 [18]: 5250 nM | TGI [18]: 2190 nM | GI50 [19]: 70.8 nM | CC50 [19]: > 100000 nM | TGI [19]: 8710 nM | CC50 [20]: > 100000 nM | TGI [20]: > 100000 nM | GI50 [21]: 617 nM | CC50 [21]: > 100000 nM | GI50 [22]: 162 nM | CC50 [22]: 2000 nM | TGI [22]: 427 nM | GI50 [23]: 1290 nM | CC50 [23]: 5250 nM | TGI [23]: 2630 nM | GI50 [24]: 490 nM | CC50 [24]: 6030 nM | TGI [24]: 2090 nM | GI50 [25]: 126 nM | CC50 [25]: 912 nM | TGI [25]: 339 nM | GI50 [26]: 398 nM | CC50 [26]: 4170 nM | TGI [26]: 1480 nM | GI50 [27]: 204 nM | CC50 [27]: 6760 nM | TGI [27]: 1410 nM | GI50 [28]: 178 nM | CC50 [28]: 2140 nM | TGI [28]: 537 nM | GI50 [29]: 457 nM | CC50 [29]: 5500 nM | TGI [29]: 1700 nM | pKa [30]: 10

CCN(CC)CCCCNc1c2ccccc2[n+](C)c2c1[nH]c1ccccc12.[Cl-]
ΔTm [1]: 13.1 °C | GI50 [2]: 437 nM | TGI [2]: 1700 nM | GI50 [3]: 427 nM | CC50 [3]: > 100000 nM | TGI [3]: 2450 nM | GI50 [4]: 468 nM | CC50 [4]: > 100000 nM | TGI [4]: 7410 nM | GI50 [5]: 83.2 nM | CC50 ([5]; UACC-62, read-out: pLC50 (converted)): 589 nM | TGI [5]: 234 nM | GI50 [6]: 219 nM | CC50 [6]: 2240 nM | TGI [6]: 617 nM | GI50 [7]: 186 nM | CC50 [7]: 1740 nM | TGI [7]: 490 nM | GI50 [8]: 331 nM | CC50 [8]: 7410 nM | TGI [8]: 1410 nM | GI50 [9]: 229 nM | CC50 [9]: 24500 nM | TGI [9]: 1350 nM | GI50 [10]: 347 nM | CC50 [10]: 3800 nM | TGI [10]: 1290 nM | GI50 [11]: 339 nM | CC50 ([11]; SW-620, read-out: pLC50 (converted)): > 100000 nM | TGI [11]: 5250 nM | GI50 [12]: 251 nM | CC50 [12]: > 100000 nM | TGI [12]: 1910 nM | GI50 [13]: 331 nM | CC50 [13]: > 100000 nM | TGI [13]: 3800 nM | GI50 [14]: 269 nM | CC50 [14]: 3630 nM | TGI [14]: 759 nM | GI50 [15]: 158 nM | CC50 [15]: 2950 nM | TGI [15]: 676 nM | GI50 [16]: 148 nM | CC50 ([16]; NCI-H522, read-out: pLC50 (converted)): 1820 nM | TGI [16]: 457 nM | GI50 [17]: 91.2 nM | CC50 [17]: 52500 nM | TGI [17]: 1290 nM | GI50 [18]: 1100 nM | CC50 [18]: 61700 nM | TGI [18]: 4470 nM | GI50 [19]: 339 nM | CC50 [19]: > 100000 nM | TGI [19]: 42700 nM | CC50 [20]: > 100000 nM | TGI [20]: > 100000 nM | GI50 [21]: 20400 nM | CC50 [21]: > 100000 nM | TGI ([21]; HL-60, read-out: pTGI): > 100000 nM | GI50 [22]: 427 nM | CC50 [22]: > 100000 nM | TGI [22]: 2570 nM | GI50 [23]: 1380 nM | CC50 [23]: 7940 nM | TGI [23]: 3310 nM | GI50 [24]: > 100000 nM | CC50 [24]: 100000 nM | TGI [24]: > 100000 nM | GI50 [25]: 224 nM | CC50 [25]: > 36300 nM | TGI [25]: 794 nM | GI50 [26]: 170 nM | CC50 [26]: 89100 nM | TGI [26]: 10000 nM | GI50 [27]: 52.5 nM | CC50 [27]: > 72400 nM | TGI [27]: 3240 nM | GI50 [28]: 468 nM | CC50 [28]: < 7590 nM | TGI [28]: 2040 nM | GI50 [29]: 1910 nM | CC50 [29]: 97700 nM | TGI [29]: 6760 nM | pKa [30]: 11.6
